Laboratory results from patent US8765669B2, “Glycosylated GLP-1 peptide” (Glytech, Inc., priority 2008, dated 2014).
No end group written: not given here.

Target: T1, DPP-IV (dipeptidyl peptidase IV from porcine kidney) (Sus scrofa, UniProt P22411)
T1 construct: dipeptidyl peptidase IV from porcine kidney, product of SIGMA; purchased SIGMA; host or cells: porcine kidney (tissue-derived enzyme)
Assay: Test of resistance to dipeptidyl peptidase IV (DPP-IV)
Type: in vitro ADME
Conditions: half-life (t1/2) in DPP-IV solution at 37° C., GLP-1 of Comparative Example 1 defined as standard (=1)
Description: Each solution mixture was adjusted with 100 mM sodium phosphate buffer to 100 μl in total and allowed to react at 37° C. A 10 μaliquot of the reaction solution was mixed with 15 μl of 10% trifluoroacetic acid prepared in advance in another Eppendorf tube.

T1 sequence (P22411 whole entry): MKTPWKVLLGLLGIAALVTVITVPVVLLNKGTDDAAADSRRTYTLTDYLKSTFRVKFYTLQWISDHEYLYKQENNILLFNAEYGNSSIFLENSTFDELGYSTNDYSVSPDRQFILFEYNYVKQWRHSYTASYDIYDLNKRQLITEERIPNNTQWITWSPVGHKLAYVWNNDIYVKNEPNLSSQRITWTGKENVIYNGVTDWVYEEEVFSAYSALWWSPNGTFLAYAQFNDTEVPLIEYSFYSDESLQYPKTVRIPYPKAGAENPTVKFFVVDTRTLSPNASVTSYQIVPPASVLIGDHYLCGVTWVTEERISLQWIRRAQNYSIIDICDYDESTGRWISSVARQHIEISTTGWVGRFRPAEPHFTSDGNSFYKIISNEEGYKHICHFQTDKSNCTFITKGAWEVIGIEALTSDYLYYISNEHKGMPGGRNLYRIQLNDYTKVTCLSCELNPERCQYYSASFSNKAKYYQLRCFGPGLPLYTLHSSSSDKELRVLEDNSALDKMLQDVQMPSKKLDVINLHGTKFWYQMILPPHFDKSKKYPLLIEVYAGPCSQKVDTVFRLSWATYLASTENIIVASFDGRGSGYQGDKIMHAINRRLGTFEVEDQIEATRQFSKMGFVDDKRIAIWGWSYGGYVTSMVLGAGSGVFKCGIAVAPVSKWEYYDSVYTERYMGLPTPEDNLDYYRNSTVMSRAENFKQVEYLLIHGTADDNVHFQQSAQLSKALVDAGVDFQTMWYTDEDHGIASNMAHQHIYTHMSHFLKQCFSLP

Molecule	Relative Resistance
CC[C@H](C)[C@H](NC(=O)[C@H](Cc1ccccc1)NC(=O)[C@H](CCC(=O)O)NC(=O)[C@H](CCCCN)NC(=O)[C@H](C)NC(=O)[C@H](C)NC(=O)[C@H](CCC(N)=O)NC(=O)[C@H](CSCC(=O)N[C@@H]1O[C@H](CO)[C@@H](O[C@@H]2O[C@H](CO)[C@@H](O[C@@H]3O[C@H](CO[C@H]4O[C@H](CO)[C@@H](O)[C@H](O)[C@@H]4O[C@@H]4O[C@H](CO)[C@@H](O[C@@H]5O[C@H](CO[C@]6(C(=O)O)C[C@H](O)[C@@H](NC(C)=O)[C@H]([C@H](O)[C@H](O)CO)O6)[C@H](O)[C@H](O)[C@H]5O)[C@H](O)[C@H]4NC(C)=O)[C@@H](O)[C@H](O[C@H]4O[C@H](CO)[C@@H](O)[C@H](O)[C@@H]4O[C@@H]4O[C@H](CO)[C@@H](O[C@@H]5O[C@H](CO[C@]6(C(=O)O)C[C@H](O)[C@@H](NC(C)=O)[C@H]([C@H](O)[C@H](O)CO)O6)[C@H](O)[C@H](O)[C@H]5O)[C@H](O)[C@H]4NC(C)=O)[C@@H]3O)[C@H](O)[C@H]2NC(C)=O)[C@H](O)[C@H]1NC(C)=O)NC(=O)[C@H](CCC(=O)O)NC(=O)[C@H](CC(C)C)NC(=O)[C@H](Cc1ccc(O)cc1)NC(=O)[C@H](CO)NC(=O)[C@H](CO)NC(=O)[C@@H](NC(=O)[C@H](CC(=O)O)NC(=O)[C@H](CO)NC(=O)[C@@H](NC(=O)[C@H](Cc1ccccc1)NC(=O)[C@@H](NC(=O)CNC(=O)[C@H](CCC(=O)O)NC(=O)[C@H](C)NC(=O)[C@@H](N)Cc1c[nH]cn1)[C@@H](C)O)[C@@H](C)O)C(C)C)C(=O)N[C@@H](C)C(=O)N[C@@H](Cc1c[nH]c2ccccc12)C(=O)N[C@@H](CC(C)C)C(=O)N[C@H](C(=O)N[C@@H](CCCCN)C(=O)NCC(=O)N[C@@H](CSCC(=O)N[C@@H]1O[C@H](CO)[C@@H](O[C@@H]2O[C@H](CO)[C@@H](O[C@@H]3O[C@H](CO[C@H]4O[C@H](CO)[C@@H](O)[C@H](O)[C@@H]4O[C@@H]4O[C@H](CO)[C@@H](O[C@@H]5O[C@H](CO[C@]6(C(=O)O)C[C@H](O)[C@@H](NC(C)=O)[C@H]([C@H](O)[C@H](O)CO)O6)[C@H](O)[C@H](O)[C@H]5O)[C@H](O)[C@H]4NC(C)=O)[C@@H](O)[C@H](O[C@H]4O[C@H](CO)[C@@H](O)[C@H](O)[C@@H]4O[C@@H]4O[C@H](CO)[C@@H](O[C@@H]5O[C@H](CO[C@]6(C(=O)O)C[C@H](O)[C@@H](NC(C)=O)[C@H]([C@H](O)[C@H](O)CO)O6)[C@H](O)[C@H](O)[C@H]5O)[C@H](O)[C@H]4NC(C)=O)[C@@H]3O)[C@H](O)[C@H]2NC(C)=O)[C@H](O)[C@H]1NC(C)=O)C(=O)NCC(=O)O)C(C)C [Example 4, 22 and 36Cys-disialo oligosaccharide Chain Added GLP-1]	22.5
CC[C@H](C)[C@H](NC(=O)[C@H](Cc1ccccc1)NC(=O)[C@H](CCC(=O)O)NC(=O)[C@H](CCCCN)NC(=O)[C@H](C)NC(=O)[C@H](C)NC(=O)[C@H](CCC(N)=O)NC(=O)[C@H](CSCC(=O)N[C@@H]1O[C@H](CO)[C@@H](O[C@@H]2O[C@H](CO)[C@@H](O[C@@H]3O[C@H](CO[C@H]4O[C@H](CO)[C@@H](O)[C@H](O)[C@@H]4O[C@@H]4O[C@H](CO)[C@@H](O[C@@H]5O[C@H](CO[C@]6(C(=O)O)C[C@H](O)[C@@H](NC(C)=O)[C@H]([C@H](O)[C@H](O)CO)O6)[C@H](O)[C@H](O)[C@H]5O)[C@H](O)[C@H]4NC(C)=O)[C@@H](O)[C@H](O[C@H]4O[C@H](CO)[C@@H](O)[C@H](O)[C@@H]4O[C@@H]4O[C@H](CO)[C@@H](O[C@@H]5O[C@H](CO[C@]6(C(=O)O)C[C@H](O)[C@@H](NC(C)=O)[C@H]([C@H](O)[C@H](O)CO)O6)[C@H](O)[C@H](O)[C@H]5O)[C@H](O)[C@H]4NC(C)=O)[C@@H]3O)[C@H](O)[C@H]2NC(C)=O)[C@H](O)[C@H]1NC(C)=O)NC(=O)[C@H](CCC(=O)O)NC(=O)[C@H](CC(C)C)NC(=O)[C@H](Cc1ccc(O)cc1)NC(=O)[C@H](CO)NC(=O)[C@H](CO)NC(=O)[C@@H](NC(=O)[C@H](CC(=O)O)NC(=O)[C@H](CO)NC(=O)[C@@H](NC(=O)[C@H](Cc1ccccc1)NC(=O)[C@@H](NC(=O)CNC(=O)[C@H](CCC(=O)O)NC(=O)[C@H](C)NC(=O)[C@@H](N)Cc1c[nH]cn1)[C@@H](C)O)[C@@H](C)O)C(C)C)C(=O)N[C@@H](CSCC(=O)N[C@@H]1O[C@H](CO)[C@@H](O[C@@H]2O[C@H](CO)[C@@H](O[C@@H]3O[C@H](CO[C@H]4O[C@H](CO)[C@@H](O)[C@H](O)[C@@H]4O[C@@H]4O[C@H](CO)[C@@H](O[C@@H]5O[C@H](CO[C@]6(C(=O)O)C[C@H](O)[C@@H](NC(C)=O)[C@H]([C@H](O)[C@H](O)CO)O6)[C@H](O)[C@H](O)[C@H]5O)[C@H](O)[C@H]4NC(C)=O)[C@@H](O)[C@H](O[C@H]4O[C@H](CO)[C@@H](O)[C@H](O)[C@@H]4O[C@@H]4O[C@H](CO)[C@@H](O[C@@H]5O[C@H](CO[C@]6(C(=O)O)C[C@H](O)[C@@H](NC(C)=O)[C@H]([C@H](O)[C@H](O)CO)O6)[C@H](O)[C@H](O)[C@H]5O)[C@H](O)[C@H]4NC(C)=O)[C@@H]3O)[C@H](O)[C@H]2NC(C)=O)[C@H](O)[C@H]1NC(C)=O)C(=O)N[C@@H](Cc1c[nH]c2ccccc12)C(=O)N[C@@H](CC(C)C)C(=O)N[C@H](C(=O)N[C@@H](CCCCN)C(=O)NCC(=O)N[C@@H](CCCNC(=N)N)C(=O)NCC(=O)O)C(C)C [Example 3, 22 and 30Cys-disialo oligosaccharide Chain Added GLP-1]	32.5
CC[C@H](C)[C@H](NC(=O)[C@H](Cc1ccccc1)NC(=O)[C@H](CCC(=O)O)NC(=O)[C@H](CCCCN)NC(=O)[C@H](C)NC(=O)[C@H](C)NC(=O)[C@H](CCC(N)=O)NC(=O)CNC(=O)[C@H](CCC(=O)O)NC(=O)[C@H](CC(C)C)NC(=O)[C@H](Cc1ccc(O)cc1)NC(=O)[C@H](CO)NC(=O)[C@H](CO)NC(=O)[C@@H](NC(=O)[C@H](CC(=O)O)NC(=O)[C@H](CO)NC(=O)[C@@H](NC(=O)[C@H](Cc1ccccc1)NC(=O)[C@@H](NC(=O)CNC(=O)[C@H](CCC(=O)O)NC(=O)[C@H](C)NC(=O)[C@@H](N)Cc1c[nH]cn1)[C@@H](C)O)[C@@H](C)O)C(C)C)C(=O)N[C@@H](CSCC(=O)N[C@@H]1O[C@H](CO)[C@@H](O)[C@H](O[C@@H]2O[C@H](C(=O)O)[C@@H](O[C@@H]3O[C@H](CO)[C@@H](O)[C@H](O[C@@H]4O[C@H](C(=O)O)[C@@H](O)[C@H](O)[C@H]4O)[C@H]3NC(C)=O)[C@H](O)[C@H]2O)[C@H]1NC(C)=O)C(=O)N[C@@H](Cc1c[nH]c2ccccc12)C(=O)N[C@@H](CC(C)C)C(=O)N[C@H](C(=O)N[C@@H](CCCCN)C(=O)NCC(=O)N[C@@H](CCCNC(=N)N)C(=O)NCC(=O)O)C(C)C [Example 6, 30Cys-hyaluronic acid tetrasaccharide (HA-4) Added GLP-1 Peptide]	2.1
36Cys-hyaluronic acid octasaccharide (HA-8) Added GLP-1 Peptide (HAEGTFTSDVSSYLEGQAAKEFIAWLVKGC(hyaluronic acid octasaccharide)G) [Example 9]	3
